According to patent US20220274967A1, “BCAT MODULATION” (Icagen, LLC, priority 2019, published 2022):
pIC50: −log10 of the molar value. Like-named read-outs stand apart in the source and are kept apart here.

How the values were obtained:
BCAT2 = molecular target: T1, BCAT2 (Homo sapiens, UniProt O15382); experiment: BCAT2 enzyme inhibition (human); assay type: biochemical
T1 sequence (O15382 28-392): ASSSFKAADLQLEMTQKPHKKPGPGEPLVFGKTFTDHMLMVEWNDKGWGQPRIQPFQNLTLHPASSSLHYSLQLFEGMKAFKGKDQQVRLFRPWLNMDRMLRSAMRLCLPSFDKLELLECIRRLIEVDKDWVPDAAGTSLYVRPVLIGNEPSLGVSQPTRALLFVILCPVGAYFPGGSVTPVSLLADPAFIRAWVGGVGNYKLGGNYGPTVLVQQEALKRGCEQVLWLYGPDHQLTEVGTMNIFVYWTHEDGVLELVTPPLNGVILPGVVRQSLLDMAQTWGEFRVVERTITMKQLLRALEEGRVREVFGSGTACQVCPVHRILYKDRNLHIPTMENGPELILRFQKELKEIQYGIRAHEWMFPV
Protocol: In further embodiments, the functional modulation of BCAT2 is assayed using a cell-free assay. In various embodiments, the cell-free assay is an enzyme-coupled fluorescent assay. For example, the disclosure contemplates use of an assay that monitors the production of L-glutamate from branch-chain amino acids and α-ketoglutarate through the coupling of hBCATm activity to two additional enzymes, L-Glutamate Oxidase (L-GOx) and Horseradish Peroxidase (HRP). Specifically, L-GOx catabolizes L-glutamate to generate α-ketoglutarate and […], the latter being utilized by HRP and leading to the formation of fluorescent resorufin from the redox-sensitive dye Amplex Red. In some embodiments, the test compound is classified as a candidate compound if a decrease in L-glutamate is measured. In further embodiments, the test compound is classified as a candidate compound if a decrease in α-ketoglutarate is measured.

GM00371 cells = experiment: Viability assay (Cell titer glo) in the 3-HIB assay; assay type: cell-based, human; details: read-out: 3HIB INHIBITION IC50 (μM) MEAN GM00371 cells Viablility Assay
Protocol: Cell Plating: Cells (Coriell Institute GM00371 cells) were plated (96-well clear bottom sterile plate; Greiner 655098) at 10,000 cells/0.1 mL in Eagle's minimum essential medium (EMEM)/15% FBS (Gibco 16000-044) with a Combi dispenser in a cell culture hood and incubated at 37° C. and 5% CO2 overnight.
Compound Dilution: Compound were prepared as 33.3× intermediate dilution in DMSO in 96 well round polystyrene plates. For 30 μM final maximum start with 30 μL of 10 mM in DMSO. 10-12 1:3 serial dilutions were prepared from left to right (20 μL+40 μL DMSO). A 10× secondary dilution was prepare in EMEM by taking 7.5 μL 33.3× and transfer to replicate 96 well round polystyrene plates and then adding 242.5 μL EMEM A 1× final dilution in EMEM was prepared by taking 50 μL 10× dilution and transferring to replicate 96 well polypropylene assay block (Costar 3956) and adding 450 μL EMEM A control was prepared for maximal compound inhibition by taking 20 μL 10 mM Reference Compound A and adding 40 μL DMSO for a concentration of 3.3 mM To 7.5 μL of the 3.3 mM Reference Compound A solution and added 242.5 μL EMEM to make a 100 μM solution. The subsequent Reference Compound A solution was diluted with EMEM to achieve a final concentration of 10 μM. The structure of Reference Compound A is:
A control was prepared for maximal compound toxicity by taking 7.5 μL Reference Compound B and 242.5 μL EMEM to make […]. 50 μL of that 100 μM Reference Compound B solution was combined with 450 μL EMEM to achieve a concentration of 30 μM. The structure of Reference Compound B is
Compound Treatment: Media was aspirated from the cells and 100 μL of D-PBS (ThermoFisher 14190144) was added and then removed. 100 μL of diluted compound was added to the cells in the place and the cells were incubated at 37° C. and 5% CO2 for 24 hours.
Viability Assay: To the cells remaining in the plate 25 μL D-PBS and 25 μL Cell titer glo reagent (Promega G7572). The plate was placed on a shaker for 2 minutes, incubated at room temperature in the dark and then read on a Clariostar microplate reader.

## CNC(=O)c1ccc2c(c1)nc(-c1csc3c1CCCC3)n2[C@H]1CCC[C@@H](NC(=O)c2ccc(Br)s2)C1 [Compound 168]
BCAT2
  pIC50: 6.00 to 6.30

## CNC(=O)c1ccc2c(C3CCCC(NC(=O)c4ccc(-c5ccccc5)s4)C3)c(-c3ccccc3)[nH]c2c1 (stereo not shown) [Compound 304]
GM00371 cells; Homo sapiens, 24 h
  IC50: ≥ 1 µM
BCAT2
  pIC50: < 6.00

## CNC(=O)c1ccc2c(C3CCCC(NC(=O)c4ccc(Br)s4)C3)c(-c3ccccc3)[nH]c2c1 (stereo not shown) [Compound 283, 3-(3-(5-bromothiophene-2-carboxamido)cyclohexyl)-N-methyl-2 phenyl-1H-indole-6-carboxamide]
GM00371 cells; Homo sapiens, 24 h
  IC50: ≥ 1 µM
BCAT2
  pIC50: < 6.00

## CNC(=O)c1ccc2c(c1)nc(-c1ccc(C#N)cc1)n2[C@H]1CCC[C@@H](NC(=O)c2ccc(Br)s2)C1 [Compound 162]
BCAT2
  pIC50: < 6.00

## CNC(=O)c1ccc2c(c1)nc(-c1ccccn1)n2[C@H]1CC[C@@H](NC(=O)c2ccc(Br)s2)C1 [Compound 132]
GM00371 cells; Homo sapiens, 24 h
  IC50: ≥ 1 µM
BCAT2
  pIC50: 6.30 to 7.00

## CNC(=O)c1ccc2c([C@H]3CCC[C@H](NC(=O)c4ccc(-c5ccccc5)s4)C3)c(-c3ccccc3)[nH]c2c1 [Compound 282]
BCAT2
  pIC50: < 6.00

## COC(=O)c1ccc2c(n1)nc(-c1ccccn1)n2[C@@H]1CCC[C@H](NC(=O)c2ccc(Br)s2)C1 [Compound 301]
BCAT2
  pIC50: 6.30 to 7.00

## CNC(=O)c1ccc2c(c1)nc(-c1c(F)cccc1F)n2[C@H]1CCC[C@@H](NC(=O)c2ccc(Br)s2)C1 [Compound 215]
GM00371 cells; 24 hours
  IC50: 0.1 to 0.5 µM
BCAT2
  pIC50: > 7.00

## CNC(=O)c1ccc2c(c1)nc(-c1ccccn1)n2[C@@H]1CCC[C@H](NC(=O)c2ccccc2)C1 [Compound 115]
GM00371 cells; Homo sapiens, 24 h
  IC50: ≥ 1 µM
BCAT2
  pIC50: < 6.00

## C=CC(=O)NCc1ccc(C(=O)N[C@H]2CCC[C@@H](n3c(-c4ccccn4)nc4cc(C(=O)NC)ccc43)C2)s1 [Compound 108]
GM00371 cells; Homo sapiens, 24 h
  IC50: ≥ 1 µM
BCAT2
  pIC50: < 6.00

## C=CC(=O)N[C@H]1CCC[C@@H](n2c(-c3ccccn3)nc3cc(C(=O)NC)ccc32)C1 [Compound 106]
GM00371 cells; Homo sapiens, 24 h
  IC50: ≥ 1 µM
BCAT2
  pIC50: < 6.00

## CNC(=O)c1ccc2c(c1)nc(-c1ccc(O)cn1)n2[C@H]1CCC[C@@H](NC(=O)c2ccc(Br)s2)C1 [Compound 186]
BCAT2
  pIC50: 6.30 to 7.00

## CNC(=O)c1ccc2c(c1)nc(-c1ccccn1)n2[C@H]1CCC[C@@H](NC(=O)c2ccc(C(C)C)s2)C1 [Compound 146]
GM00371 cells; Homo sapiens, 24 h
  IC50: ≥ 1 µM
BCAT2
  pIC50: < 6.00

## COC(=O)c1ccc2c(n1)nc(-c1ccccn1)n2[C@H]1CCC[C@@H](NC(=O)c2cccs2)C1 [Compound 300]
BCAT2
  pIC50: < 6.00

## CNC(=O)c1cc2nc(-c3ccccc3F)n([C@H]3CCC[C@@H](NC(=O)c4ccc(Br)s4)C3)c2cc1OC [Compound 213]
GM00371 cells; Homo sapiens, 24 h
  IC50: < 0.1 µM
BCAT2
  pIC50: > 7.00

## CNC(=O)c1ccc2c(n1)nc(-c1ccccn1)n2[C@@H]1CCC[C@H](NC(=O)c2ccc(Br)s2)C1 [Compound 305]
BCAT2
  pIC50: < 6.00

## C=CC(=O)Nc1ccc(C(=O)N[C@H]2CCC[C@@H](n3c(-c4ccccn4)nc4cc(C(=O)NC)ccc43)C2)s1 [Compound 110]
GM00371 cells; Homo sapiens, 24 h
  IC50: ≥ 1 µM
BCAT2
  pIC50: < 6.00

## CNC(=O)c1cc2nc(-c3ccccn3)n([C@H]3CCC[C@@H](NC(=O)c4ccc(Cl)s4)C3)c2cc1OC [Compound 214]
GM00371 cells; Homo sapiens, 24 h
  IC50: 0.1 to 0.5 µM
BCAT2
  pIC50: > 7.00

## CNC(=O)c1ccc2c(C3CCCC(NC(=O)c4cccs4)C3)c(-c3ccccc3)[nH]c2c1 (stereo not shown) [Compound 290]
GM00371 cells; Homo sapiens, 24 h
  IC50: ≥ 1 µM
BCAT2
  pIC50: < 6.00

## CNC(=O)c1ccc2c(c1)nc(-c1ccc(C)cc1)n2[C@H]1CCC[C@@H](NC(=O)c2ccc(Br)s2)C1 [Compound 170]
BCAT2
  pIC50: 6.00 to 6.30

## CNC(=O)c1ccc2c(c1)nc(-c1cccc(C#N)c1)n2[C@H]1CCC[C@@H](NC(=O)c2ccc(Br)s2)C1 [Compound 165]
BCAT2
  pIC50: < 6.00

## CNC(=O)c1ccc2c(c1)nc(-c1ccc(O)cn1)n2[C@H]1CCC[C@@H](NC(=O)c2ccc(Cl)s2)C1 [Compound 191]
BCAT2
  pIC50: < 6.00

## CNC(=O)c1cc2nc(-c3ccccc3F)n([C@H]3CCC[C@@H](NC(=O)c4ccc(Cl)s4)C3)c2cc1OC [Compound 212]
GM00371 cells; Homo sapiens, 24 h
  IC50: < 0.1 µM
BCAT2
  pIC50: > 7.00

## CNC(=O)c1ccc2c(c1)nc(-c1ccccn1)n2[C@@H]1CCC[C@H](NC(=O)c2ccc(Br)o2)C1 [Compound 125]
BCAT2
  pIC50: < 6.00

## CNC(=O)c1ccc2c(c1)nc(-c1ccccn1)n2[C@@H]1CCC[C@H](NC(=O)c2ccc(C(=O)OC)s2)C1 [Compound 122]
GM00371 cells; Homo sapiens, 24 h
  IC50: ≥ 1 µM
BCAT2
  pIC50: < 6.00

## CNC(=O)c1ccc2c(c1)nc(-c1ccccc1C(N)=O)n2[C@H]1CCC[C@@H](NC(=O)c2ccc(C#N)s2)C1 [Compound 142]
GM00371 cells; Homo sapiens, 24 h
  IC50: ≥ 1 µM
BCAT2
  pIC50: > 7.00

## CNC(=O)c1ccc2c(c1)nc(-c1cccc(F)n1)n2[C@H]1CCC[C@@H](NC(=O)c2ccc(Br)s2)C1 [Compound 216]
GM00371 cells; Homo sapiens, 24 h
  IC50: ≥ 1 µM
BCAT2
  pIC50: > 7.00

## CNC(=O)c1ccc2c(c1)nc(-c1ccccn1)n2[C@@H]1CCC[C@H](NC(=O)c2ccc(-c3ccccc3)s2)C1 [Compound 111]
GM00371 cells; Homo sapiens, 24 h
  IC50: ≥ 1 µM
BCAT2
  pIC50: < 6.00

## CNC(=O)c1ccc2c(c1)nc(-c1ccc(C)cn1)n2[C@H]1CCC[C@@H](NC(=O)c2ccc(Br)s2)C1 [Compound 153]
BCAT2
  pIC50: 6.00 to 6.30

## CNC(=O)c1ccc2c(c1)nc(-c1ccccn1)n2[C@@H]1CCC[C@H](NC(=O)c2ccc(Br)cc2)C1 [Compound 114]
BCAT2
  pIC50: 6.30 to 7.00

## CNC(=O)c1ccc2c(c1)nc(-c1cc(Cl)ccc1O)n2[C@H]1CCC[C@@H](NC(=O)c2ccc(C#N)s2)C1 [Compound 179]
BCAT2
  pIC50: 6.30 to 7.00

## O=C(N[C@H]1CCC[C@@H](n2c(-c3ccccn3)nc3cc(CO)ccc32)C1)c1ccc(Br)s1 [Compound 119]
BCAT2
  pIC50: 6.30 to 7.00

## CNC(=O)c1ccc2c(c1)nc(-c1ccc3c(c1)OC(F)(F)O3)n2[C@H]1CCC[C@@H](NC(=O)c2ccc(Br)s2)C1 [Compound 160]
BCAT2
  pIC50: < 6.00

## CNC(=O)c1ccc2c(c1)nc(-c1ncccc1OC)n2[C@H]1CCC[C@@H](NC(=O)c2ccc(Br)s2)C1 [Compound 150]
BCAT2
  pIC50: < 6.00

## CNC(=O)c1ccc2c(c1)nc(-c1ccccc1N1CCOCC1)n2[C@H]1CCC[C@@H](NC(=O)c2ccc(Br)s2)C1 [Compound 159]
BCAT2
  pIC50: 6.30 to 7.00

## CNC(=O)c1ccc2c(c1)nc(-c1ccccc1NC(C)=O)n2[C@H]1CCC[C@@H](NC(=O)c2ccc(C#N)s2)C1 [Compound 130]
BCAT2
  pIC50: 6.00 to 6.30

## CNC(=O)c1ccc2c(c1)nc(-c1cc(Cl)ccc1O)n2[C@H]1CCC[C@@H](NC(=O)c2ccc(Cl)s2)C1 [Compound 190]
BCAT2
  pIC50: 6.30 to 7.00

## CNC(=O)c1ccc2c(c1)nc(-c1ccc(Cl)cc1)n2[C@H]1CCC[C@@H](NC(=O)c2ccc(Br)s2)C1 [Compound 164]
BCAT2
  pIC50: 6.30 to 7.00

## CNC(=O)c1ccc2c(c1)nc(-c1ccc(C#N)c(Cl)n1)n2[C@H]1CCC[C@@H](NC(=O)c2ccc(C#N)s2)C1 [Compound 187]
BCAT2
  pIC50: < 6.00

## CNC(=O)c1ccc2c(c1)nc(-c1cccc(C)n1)n2[C@H]1CCC[C@@H](NC(=O)c2ccc(Br)s2)C1 [Compound 148]
BCAT2
  pIC50: > 7.00

## CNC(=O)c1ccc2c(c1)nc(-c1ccc(C)s1)n2[C@H]1CCC[C@@H](NC(=O)c2ccc(Br)s2)C1 [Compound 171]
BCAT2
  pIC50: 6.30 to 7.00

## CNC(=O)c1ccc2c(c1)nc(-c1ccc(OC)c(OC)c1)n2[C@H]1CCC[C@@H](NC(=O)c2ccc(Br)s2)C1 [Compound 158]
BCAT2
  pIC50: < 6.00

## C#Cc1cccc(-c2nc3cc(C(=O)NC)ccc3n2[C@H]2CCC[C@@H](NC(=O)c3ccc(Br)s3)C2)c1 [Compound 167]
BCAT2
  pIC50: < 6.00

## CNC(=O)c1ccc2c(c1)nc(-c1cc(Cl)cc(C)c1O)n2[C@H]1CCC[C@@H](NC(=O)c2ccc(Br)s2)C1 [Compound 182]
BCAT2
  pIC50: < 6.00
